Values joined by “and” are separate entries in the source; they are usually repeats but may differ in a detail not shown here. Equal entries are not always repeated.
What was measured:
[1] = test system: HepG2 cells; conditions: HepG2 cells incubated with 10 μM; cited from earlier work
[2] = test system: HCV replicon RNA in Huh 7 Clone B cells; experiment: HCV replicon assay (replicon RNA by real time RT-PCR); assay type: cell-based; conditions: for HCV Ct: single replicates
Experimental: (§1) Following five days incubation (37° C., 5% CO2), total cellular RNA was isolated by using versaGene RNA purification kit from Gentra. Replicon RNA and an internal control (TaqMan rRNA control reagents, Applied Biosystems) were amplified in a single step multiplex Real Time RT-PCR Assay. The antiviral effectiveness of the compounds was calculated by subtracting the threshold RT-PCR cycle of the test compound from the threshold RT-PCR cycle of the no-drug control (ΔCt HCV). A ΔCt of 3.3 equals a 1-log reduction (equal to 90% less starting material) in Replicon RNA levels. The cytotoxicity of the compounds was also calculated by using the ΔCt rRNA values. (2′-Me-C) was used as the control. To determine EC90 and IC50 values^2, ΔCt: values were first converted into fraction of starting material^3 and then were used to calculate the % inhibition. […]

[3] = HCV replicon assay, cytotoxicity from rRNA Ct values; assay type: cell-based; conditions: human, Huh 7 Clone B cells containing HCV replicon RNA; from rRNA, Huh 7 Clone B cells
Experimental: as §1

[4] = test system: Huh 7 Clone B cells (rRNA); experiment: as above; assay type: cell-based; conditions: for rRNA Ct: single replicates
Experimental: as §1

[5] = Cytotoxicity assay in PBM cells; assay type: cell-based; conditions: human, figure in parentheses not defined
Experimental: (§2) The toxicity of the compounds was assessed in Vero, human PBM, CEM (human lymphoblastoid), MT-2, and HepG2 cells, as described previously (see Schinazi R. F., Sommadossi J.-P., Saalmann V., Cannon D. L., Xie M.-Y., Hart G. C., Smith G. A. & Hahn E. F. Antimicrob. Agents Chemother. 1990, 34, 1061-67). Cycloheximide was included as positive cytotoxic control, and untreated cells exposed to solvent were included as negative controls. The cytotoxicity IC50 was obtained from the concentration-response curve using the median effective method described previously (see Chou T.-C. & Talalay P. Adv. Enzyme Regul. 1984, 22, 27-55; Belen'kii M. S. & Schinazi R. F. Antiviral Res. 1994, 25, 1-11).

[6] = Cytotoxicity assay in CEM cells; assay type: cell-based; conditions: human, CEM (human lymphoblastoid) cells
Experimental: as §2

[7] = Cytotoxicity assay in Vero cells; assay type: cell-based; conditions: African green monkey, figure in parentheses not defined
Experimental: as §2

[8] = Hepatitis C virus, Huh-7, 120 h, HCV replicon, five days incubation

In the case of `O=c1[nH]c(=O)n([C@@H]2O[C@H](CO)[C@@H](O)[C@@H]2F)cc1I` [fialuridine, 1,2′-deoxy-2′-fluoro-1-D-arabinofuranosly-5-iodo-uracil], the “morphological changes in mitochondria (electron micrographs)” value [1] is given as “enlarged mitochondria with morphological changes consistent with mitochondrial dysfunction”.

For `C=C[C@@H]1C[C@]1(NC(=O)[C@@H]1C[C@@H](OC(=O)N2Cc3cccc(F)c3C2)CN1C(=O)[C@@H](NC(=O)C(C)(C)C(F)(F)F)C(C)(C)C)C(=O)NS(=O)(=O)C1CC1` [drawing 12], the “% Inhit (HCV)” value ([2]; 3 nM) was −33.8%, the “DCt HCV” value ([2]; 3 nM) was −0.4 and the “HCV Ct Average” value ([2]; 3 nM) was 22.8. The “HCV Ct” value ([2]; 3 nM) was 22.6 (2×) and 23.2, the “% Inhit (HCV)” value ([2]; 10 nM) was 91.7% and the “DCt HCV” value ([2]; 10 nM) was 3.6. The “HCV Ct Average” value ([2]; 10 nM) was 26.8, the “HCV Ct” value ([2]; 10 nM) was 27.0 and 26.9 and 26.6 and the “% Inhit (HCV)” value ([2]; 33 nM) was 98.0%. The “DCt HCV” value ([2]; 33 nM) was 5.7, the “HCV Ct Average” value ([2]; 33 nM) was 28.9 and the “HCV Ct” value ([2]; 33 nM) was 29.2 and 29.1 and 28.4. For the same molecule, the “% Inhit (HCV)” value ([2]; 100 nM) was 99.4%, the “DCt HCV” value ([2]; 100 nM) was 7.3 and the “HCV Ct Average” value ([2]; 100 nM) was 30.5. The “HCV Ct” value ([2]; 100 nM) was 30.3 and 30.5 and 30.8, the EC50 [2, 8] was 7.7 nM and the EC90 [2, 8] was 9.9 nM. For the same molecule, the CC50 at 5 days [3] was > 100 nM, the “DCt rRNA” value ([4]; 3 nM) was −0.8 and the “rRNA Ct Average” value ([4]; 3 nM) was 19.2. The “rRNA Ct” value ([4]; 3 nM) was 19.2 and 19.3 and 18.9, the “DCt rRNA” value ([4]; 10 nM) was −0.9 and the “rRNA Ct Average” value ([4]; 10 nM) was 19.0. The “rRNA Ct” value ([4]; 10 nM) was 19.2 and 18.9 and 19.0, the “DCt rRNA” value ([4]; 33 nM) was −0.8 and the “rRNA Ct Average” value ([4]; 33 nM) was 19.1. The “rRNA Ct” value ([4]; 33 nM) was 19.2 (2×) and 19.1, the “DCt rRNA” value ([4]; 100 nM) was −1.0 and the “rRNA Ct Average” value ([4]; 100 nM) was 19.0. The “rRNA Ct” value ([4]; 100 nM) was 19.0 and 18.8 and 19.2, the inhibition at 0.003 µM ([4]; Homo sapiens, Huh-7, 3 nM, read-out: % inhib. rRNA) was -74.8% and the inhibition at 0.01 µM ([4]; Homo sapiens, Huh-7, 10 nM, read-out: % inhib. rRNA) was -89.1%. It also gave an inhibition at 0.033 µM ([4]; Homo sapiens, Huh-7, 33 nM, read-out: % inhib. rRNA) of -75.6% and an inhibition at 0.1 µM ([4]; Homo sapiens, Huh-7, 100 nM, read-out: % inhib. rRNA) of -95.2%.

With `C=C[C@@H]1C[C@]1(NC(=O)[C@@H]1C[C@@H](OC(=O)N2Cc3cccc(F)c3C2)CN1C(=O)[C@@H](NC(=O)C(C)(C)C(F)(F)F)C(C)(C)C)C(=O)NS(=O)(=O)C1CC1` [drawing 11] the IC50 [5] was > 100 µM, the IC50 [6] was 85.1 µM and the IC50 [7] was ≥ 100 µM.

— US9040479B2, “HCV NS3 protease inhibitors” (RFS Pharma, LLC, priority 2012, dated 2015)
